Paper PMC13110364, “Design, Synthesis, and Biological Evaluation of Novel Triazine‐Based Dual Histone Deacetylase/phosphatidylinositol 3‐kinase Inhibitors for Breast Cancer Therapy” (Chemmedchem, 2026)
Values joined by “and” are separate entries in the source; they are usually repeats but may differ in a detail not shown here. Equal entries are not always repeated.

Legend:
[1] = system: LY2 breast cancer cells; test: MTS cell viability assay, LY2; assay type: cell-based; conditions: 72 h treatment
Protocol: The cell viability effects of compounds 5a–5f were assessed in LY2, JIMT1, and MDA‐MB‐231 breast cancer cell lines using the 3‐(4,5‐dimethylthiazol‐2‐yl)‐5‐(3‐carboxymethoxyphenyl)‐2‐(4‐sulfophenyl)‐2H‐tetrazolium (MTS) assay. The MTS assay measures metabolic viability and serves as a first‐pass screen.
JIMT‐1 (DSMZ ACC 589) and MDA‐MB‐231 (ATCC HTB‐26) breast cancer cell lines were maintained in Dulbecco's Modified Eagle Medium (DMEM) High Glucose with L‐glutamine (D5796, Sigma) supplemented with 10% fetal calf serum. MCF7‐derivative LY2 breast cancer cells were previously described (REF: PMID: 33420368). LY2 cells were cultured in phenol red‐free MEM (PRF‐MEM; 51 200‐046, Gibco) supplemented with 10% charcoal dextran‐stripped fetal calf serum (CDS‐FCS; F6765, Merck), 2 mmol/L L‐glutamine (G7513, Merck), and 10^−8 mol/L 4‐hydroxytamoxifen (4‐OHT; H7904, Merck). All cell lines were maintained at 37°C in a humidified incubator with 5% CO2 and regularly authenticated and tested for mycoplasma.
Cell viability was evaluated in response to increasing concentrations of 5a‐5f (0.3, 1, 3, 10, and 30 μM) or vehicle control (0.1% DMSO). LY2, JIMT1, and MDA‐MB‐231 cells were seeded at a density of 2,500 cells per well in 96‐well plates with a total volume of 100 μL per well. Prior to treatment, cells were serum‐deprived for 24 h. Following serum depletion, cells were treated in complete growth medium for 72 h. Cell viability was assessed using the MTS assay (G1111, Promega) according to the manufacturer's instructions. Absorbance was measured at 495 nm using a BioTek Synergy HTX Multi‐Mode Microplate Reader (Agilent). Results were normalized to the vehicle control (DMSO), and the half‐maximal inhibitory concentration (IC50) of the inhibitors was determined by nonlinear regression (curve fit) using a four‐parameter variable slope model.

[2] = system: MCF‐10A cells; test: Cell viability in nontransformed cell line MCF-10A; assay type: cell-based; conditions: Homo sapiens
Text: Thus, further optimization will be required to improve the therapeutic index.
FIGURE 5 Dose‐dependent effects of compound treatment (5b and 5f) on nontransformed breast cell viability across MCF‐10A.

[3] = biological target: HDAC6 (Homo sapiens, UniProt Q9UBN7); test: HDAC6 inhibition, 10-dose IC50 (Reaction Biology Corporation); assay type: biochemical; conditions: 10‐dose IC50 mode, threefold serial dilutions starting at 1 μM
Chain of HDAC6 (Q9UBN7 whole entry): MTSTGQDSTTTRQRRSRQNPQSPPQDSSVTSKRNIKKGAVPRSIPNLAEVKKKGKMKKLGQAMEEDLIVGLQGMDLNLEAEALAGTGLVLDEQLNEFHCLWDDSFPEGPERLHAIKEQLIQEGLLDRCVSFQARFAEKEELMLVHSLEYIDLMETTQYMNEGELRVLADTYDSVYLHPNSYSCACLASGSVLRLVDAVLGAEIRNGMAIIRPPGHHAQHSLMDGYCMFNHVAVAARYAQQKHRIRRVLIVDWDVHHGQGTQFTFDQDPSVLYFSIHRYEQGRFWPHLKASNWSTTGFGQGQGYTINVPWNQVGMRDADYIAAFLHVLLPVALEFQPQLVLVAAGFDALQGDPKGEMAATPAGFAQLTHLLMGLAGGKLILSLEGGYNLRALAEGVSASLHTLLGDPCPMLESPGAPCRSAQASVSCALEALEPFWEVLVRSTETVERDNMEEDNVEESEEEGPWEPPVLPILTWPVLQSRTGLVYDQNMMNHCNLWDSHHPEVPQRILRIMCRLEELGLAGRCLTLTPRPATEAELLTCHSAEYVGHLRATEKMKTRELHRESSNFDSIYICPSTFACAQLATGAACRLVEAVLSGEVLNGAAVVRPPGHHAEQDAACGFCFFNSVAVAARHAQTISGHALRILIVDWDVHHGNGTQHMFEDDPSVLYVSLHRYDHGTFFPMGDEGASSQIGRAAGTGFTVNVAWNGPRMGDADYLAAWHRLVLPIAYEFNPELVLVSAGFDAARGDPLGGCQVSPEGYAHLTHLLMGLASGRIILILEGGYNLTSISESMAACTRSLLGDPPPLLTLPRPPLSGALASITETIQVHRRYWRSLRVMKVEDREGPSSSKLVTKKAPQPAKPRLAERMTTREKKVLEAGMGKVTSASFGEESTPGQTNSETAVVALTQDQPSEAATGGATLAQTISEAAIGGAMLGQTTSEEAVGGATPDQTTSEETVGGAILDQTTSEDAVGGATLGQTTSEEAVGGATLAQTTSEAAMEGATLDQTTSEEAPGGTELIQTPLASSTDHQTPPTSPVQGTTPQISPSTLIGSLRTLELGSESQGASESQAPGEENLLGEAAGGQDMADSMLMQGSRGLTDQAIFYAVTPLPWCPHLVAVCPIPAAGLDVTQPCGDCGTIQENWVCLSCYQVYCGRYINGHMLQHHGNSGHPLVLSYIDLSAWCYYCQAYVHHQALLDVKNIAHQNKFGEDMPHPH

[4] = biological target: PI3Kα (Homo sapiens, UniProt P42336); test: PI3Kα inhibition, 10-dose IC50 (Reaction Biology Corporation); assay type: biochemical
[5] = biological target: HDAC1 (Homo sapiens, UniProt Q13547); test: Selectivity profile, single dose 0.5 µM, HDAC1; assay type: biochemical; conditions: remaining enzyme activity; single‐dose duplicate mode at 0.5 μM; read-out: Enzyme % activity (relative to DMSO controls) at 0.5 µM, HDAC1
Chain of HDAC1 (Q13547 whole entry, canonical isoform): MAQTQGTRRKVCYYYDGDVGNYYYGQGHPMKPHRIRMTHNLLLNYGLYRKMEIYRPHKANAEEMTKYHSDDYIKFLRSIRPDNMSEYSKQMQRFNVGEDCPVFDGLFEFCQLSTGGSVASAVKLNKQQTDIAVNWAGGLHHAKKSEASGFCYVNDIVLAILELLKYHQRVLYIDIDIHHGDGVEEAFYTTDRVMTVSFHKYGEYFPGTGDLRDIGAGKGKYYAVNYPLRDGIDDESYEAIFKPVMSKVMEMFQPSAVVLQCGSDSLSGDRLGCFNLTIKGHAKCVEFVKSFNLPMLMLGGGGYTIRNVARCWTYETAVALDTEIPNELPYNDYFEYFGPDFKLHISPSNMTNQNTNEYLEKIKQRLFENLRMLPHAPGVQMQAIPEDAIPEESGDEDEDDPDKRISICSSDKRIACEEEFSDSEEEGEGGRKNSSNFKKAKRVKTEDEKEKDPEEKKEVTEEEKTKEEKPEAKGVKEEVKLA
Protocol: (§1) The inhibitory profiles of 5b and 5f were evaluated against selected HDAC isoforms (HDAC1, HDAC3, HDAC4, HDAC8, and HDAC10) and PI3K isoforms (PI3Kδ, PI3Kγ, and PI3Kβ) at a fixed concentration of 0.5 µM (Table 3). […] While we explored the phenyl ring in the linker region to achieve selectivity for the HDAC6 isoform, we still observed HDAC class I inhibition. […] It is important to highlight that PI3Kδ is mainly expressed in hematopoietic system and plays roles in leukocyte signaling, T‐cell activation, and immune cell trafficking. FDA‐approved drug idelalisib is a selective PI3Kδ inhibitor in B‐cell malignancies; however, this drug is also related to disruption of the immune system, which can lead to immune manifestations, such as infections. In addition, while isoform‐selective PI3K inhibitors are well tolerated, pan‐inhibition of PI3K is less expected that compensatory mechanisms by the action of other PI3Ks can take place. Thus, a more balanced profile of PI3K inhibition can lead to an overall lack of toxicity of PI3K inhibitors.

[6] = biological target: HDAC3 (Homo sapiens, UniProt O15379); test: Selectivity profile, single dose 0.5 µM, HDAC3; assay type: biochemical; conditions: remaining enzyme activity; single‐dose duplicate mode at 0.5 μM; read-out: Enzyme % activity (relative to DMSO controls) at 0.5 µM, HDAC3
Chain of HDAC3 (O15379 whole entry): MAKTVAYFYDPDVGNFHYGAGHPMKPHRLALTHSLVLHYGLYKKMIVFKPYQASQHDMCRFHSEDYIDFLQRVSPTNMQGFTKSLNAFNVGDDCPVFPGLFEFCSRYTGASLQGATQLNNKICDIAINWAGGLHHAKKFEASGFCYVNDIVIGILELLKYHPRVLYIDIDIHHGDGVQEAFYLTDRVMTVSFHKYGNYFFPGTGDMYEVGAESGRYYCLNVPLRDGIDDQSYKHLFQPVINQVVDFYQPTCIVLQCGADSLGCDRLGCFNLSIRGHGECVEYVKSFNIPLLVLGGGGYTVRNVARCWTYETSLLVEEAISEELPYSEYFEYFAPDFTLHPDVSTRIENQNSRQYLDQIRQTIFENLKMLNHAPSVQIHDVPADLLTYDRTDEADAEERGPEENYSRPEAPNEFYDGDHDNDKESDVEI
Chain of HDAC3 (Q9Y618 395-489 partner limits assumed): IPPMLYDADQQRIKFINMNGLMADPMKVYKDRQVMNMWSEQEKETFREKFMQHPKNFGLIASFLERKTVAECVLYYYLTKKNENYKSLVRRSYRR
Protocol: as §1

[7] = biological target: HDAC4 (Homo sapiens, UniProt P56524); test: Selectivity profile, single dose 0.5 µM, HDAC4; assay type: biochemical; conditions: remaining enzyme activity; single‐dose duplicate mode at 0.5 μM; read-out: Enzyme % activity (relative to DMSO controls) at 0.5 µM, HDAC4
Protocol: as §1

[8] = biological target: HDAC8 (Homo sapiens, UniProt Q9BY41); test: Selectivity profile, single dose 0.5 µM, HDAC8; assay type: biochemical; conditions: remaining enzyme activity; single‐dose duplicate mode at 0.5 μM; read-out: Enzyme % activity (relative to DMSO controls) at 0.5 µM, HDAC8
Chain of HDAC8 (Q9BY41 whole entry): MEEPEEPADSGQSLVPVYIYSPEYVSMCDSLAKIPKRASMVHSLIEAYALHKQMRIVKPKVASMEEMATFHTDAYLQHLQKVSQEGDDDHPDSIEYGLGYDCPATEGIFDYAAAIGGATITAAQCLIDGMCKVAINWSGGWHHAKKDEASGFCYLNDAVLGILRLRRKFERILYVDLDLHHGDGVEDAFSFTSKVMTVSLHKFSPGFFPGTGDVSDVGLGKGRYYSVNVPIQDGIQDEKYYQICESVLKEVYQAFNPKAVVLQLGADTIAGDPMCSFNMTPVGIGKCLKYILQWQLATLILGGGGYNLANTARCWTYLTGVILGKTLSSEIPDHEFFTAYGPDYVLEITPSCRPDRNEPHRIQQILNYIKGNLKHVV
Protocol: as §1

[9] = biological target: HDAC10 (Homo sapiens, UniProt Q969S8); test: Selectivity profile, single dose 0.5 µM, HDAC10; assay type: biochemical; conditions: remaining enzyme activity; single‐dose duplicate mode at 0.5 μM; read-out: Enzyme % activity (relative to DMSO controls) at 0.5 µM, HDAC10
Chain of HDAC10 (Q969S8 whole entry): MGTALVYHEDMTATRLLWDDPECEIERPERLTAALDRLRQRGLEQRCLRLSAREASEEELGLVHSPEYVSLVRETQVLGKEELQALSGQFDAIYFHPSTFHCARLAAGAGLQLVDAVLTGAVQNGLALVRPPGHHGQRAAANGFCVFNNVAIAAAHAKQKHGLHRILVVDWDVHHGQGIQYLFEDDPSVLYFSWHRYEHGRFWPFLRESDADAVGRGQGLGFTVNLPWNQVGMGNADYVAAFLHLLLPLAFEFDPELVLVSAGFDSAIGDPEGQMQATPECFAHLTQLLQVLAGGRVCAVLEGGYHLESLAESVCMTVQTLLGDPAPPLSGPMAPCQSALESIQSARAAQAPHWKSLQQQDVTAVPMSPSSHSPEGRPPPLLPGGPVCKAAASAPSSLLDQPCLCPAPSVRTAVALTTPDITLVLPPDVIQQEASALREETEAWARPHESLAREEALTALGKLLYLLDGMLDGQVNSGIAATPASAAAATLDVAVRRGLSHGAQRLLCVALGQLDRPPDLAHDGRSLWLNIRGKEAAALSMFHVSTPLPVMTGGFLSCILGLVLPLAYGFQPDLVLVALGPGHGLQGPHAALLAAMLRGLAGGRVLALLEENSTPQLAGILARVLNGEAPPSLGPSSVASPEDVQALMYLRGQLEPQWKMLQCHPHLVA
Protocol: as §1

[10] = biological target: PI3Kδ (Homo sapiens, UniProt O00329); test: Selectivity profile, single dose 0.5 µM, PI3Kδ; assay type: biochemical; conditions: remaining enzyme activity; single‐dose duplicate mode at 0.5 μM; read-out: Enzyme % activity (relative to DMSO controls) at 0.5 µM, PI3Kδ
Chain of PI3Kδ (O00329 whole entry): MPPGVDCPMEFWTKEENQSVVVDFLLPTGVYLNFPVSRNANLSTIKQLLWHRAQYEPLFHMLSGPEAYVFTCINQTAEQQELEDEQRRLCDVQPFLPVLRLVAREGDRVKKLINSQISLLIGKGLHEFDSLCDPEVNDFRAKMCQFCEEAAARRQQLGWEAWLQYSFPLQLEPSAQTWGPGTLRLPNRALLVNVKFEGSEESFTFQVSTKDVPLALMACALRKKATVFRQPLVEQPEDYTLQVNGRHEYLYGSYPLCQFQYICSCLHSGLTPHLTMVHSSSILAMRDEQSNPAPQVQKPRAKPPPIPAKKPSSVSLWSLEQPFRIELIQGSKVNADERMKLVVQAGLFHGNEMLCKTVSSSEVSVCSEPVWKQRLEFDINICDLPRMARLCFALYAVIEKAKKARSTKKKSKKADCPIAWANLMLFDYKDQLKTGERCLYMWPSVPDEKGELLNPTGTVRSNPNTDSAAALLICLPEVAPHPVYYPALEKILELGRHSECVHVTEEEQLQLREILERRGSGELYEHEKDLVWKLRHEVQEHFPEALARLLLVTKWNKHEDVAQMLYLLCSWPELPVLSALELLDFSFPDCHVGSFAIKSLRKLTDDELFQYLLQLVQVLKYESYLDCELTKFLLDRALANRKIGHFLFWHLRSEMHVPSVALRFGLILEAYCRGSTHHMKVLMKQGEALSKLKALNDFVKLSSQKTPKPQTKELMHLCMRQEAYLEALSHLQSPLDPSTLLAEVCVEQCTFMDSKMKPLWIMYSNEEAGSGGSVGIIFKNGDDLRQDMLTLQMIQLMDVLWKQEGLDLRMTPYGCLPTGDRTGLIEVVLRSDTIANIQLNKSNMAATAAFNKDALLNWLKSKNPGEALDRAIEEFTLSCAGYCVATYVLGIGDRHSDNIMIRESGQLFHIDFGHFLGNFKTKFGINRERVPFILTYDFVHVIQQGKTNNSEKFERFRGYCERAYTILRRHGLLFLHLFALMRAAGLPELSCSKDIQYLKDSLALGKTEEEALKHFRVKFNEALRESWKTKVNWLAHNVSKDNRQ
Chain of PI3Kδ (P27986 whole entry partner): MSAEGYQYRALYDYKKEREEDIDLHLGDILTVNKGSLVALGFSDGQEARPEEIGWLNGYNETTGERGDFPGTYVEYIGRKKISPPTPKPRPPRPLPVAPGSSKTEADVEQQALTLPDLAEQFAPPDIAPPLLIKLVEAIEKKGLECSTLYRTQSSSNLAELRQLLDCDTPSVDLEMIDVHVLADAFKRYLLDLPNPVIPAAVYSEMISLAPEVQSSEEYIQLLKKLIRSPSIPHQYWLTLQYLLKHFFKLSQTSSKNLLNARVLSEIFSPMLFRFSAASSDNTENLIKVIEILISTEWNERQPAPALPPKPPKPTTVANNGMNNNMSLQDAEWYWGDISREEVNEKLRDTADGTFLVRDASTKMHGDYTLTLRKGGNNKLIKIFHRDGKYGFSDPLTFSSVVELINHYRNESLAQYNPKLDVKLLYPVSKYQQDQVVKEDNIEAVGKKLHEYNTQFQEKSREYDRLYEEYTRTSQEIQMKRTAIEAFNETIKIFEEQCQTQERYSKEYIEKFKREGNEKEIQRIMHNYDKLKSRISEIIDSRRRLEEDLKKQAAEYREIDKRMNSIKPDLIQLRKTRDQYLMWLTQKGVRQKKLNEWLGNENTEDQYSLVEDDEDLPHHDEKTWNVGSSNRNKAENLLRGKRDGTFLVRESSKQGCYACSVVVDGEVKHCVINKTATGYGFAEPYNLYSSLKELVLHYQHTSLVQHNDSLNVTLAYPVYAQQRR
Protocol: as §1

IC50 [1] | IC50 [3] | IC50 [4] | remaining activity at 0.5 µM [5] | remaining activity at 0.5 µM [6] | remaining activity at 0.5 µM [7] | remaining activity at 0.5 µM [8] | remaining activity at 0.5 µM [9] | remaining activity at 0.5 µM [10] | Compound | IC50 [2]
4.68 ± 1.34 µM | 2.33 nM and 2.3 nM | 17.5 nM | 35.9% | 22.6% | 89% | 46.3% | 15.9% | 8.24% | O=C(NO)c1ccc(CNc2nc(-c3cccc(O)c3)nc(N3CCOCC3)n2)cc1 [Compound 5b, N‐Hydroxy‐4‐(((4‐(3‐Hydroxyphenyl)‐6‐Morpholino‐1,3,5‐Triazin‐2‐yl)Amino)Methyl)Benzamide] | < 1000 nM
8.81 ± 0.59 µM | 6.02 nM and 6 nM | 236 nM | 35.7% | 26.6% | 98.4% | 46.9% | 28.1% | 59.2% | COc1ccc(-c2nc(NCc3ccc(C(=O)NO)cc3)nc(N3CCOCC3)n2)cn1 [Compound 5f, N‐Hydroxy‐4‐(((4‐(6‐Methoxypyridin‐3‐yl)‐6‐Morpholino‐1,3,5‐Triazin‐2‐yl)Amino)Methyl)Benzamide] | < 1000 nM
